Laboratory results reported in US10568317B2 (Biomatrica, Inc., priority 2015, dated 2020).

Columns and labels:
Format in all cases: cell-based
[1] = tested on: erythrocytes in whole blood; experiment: Erythrocyte sedimentation in whole blood: sucralose concentration and other saccharides, visual analysis (Example 2); settings: K2EDTA blood, 1 hour and 6 hours
Experimental: Fresh blood was collected into BD K2EDTA VACUTAINER® tubes and pooled. 952 μL of fresh blood was aliquot into 2 mL centrifuge tubes, each containing 48 μL of sucralose at the indicated concentration in FIG. 2, or the indicated saccharide (ML848, a di-chlorinated monosaccharide, or DG783, a mono-fluorinated monosaccharide) at the indicated concentration. Sucralose solutions of different concentrations were prepared by dilution of 0.5 M sucralose to 10 mM in water. […] 48 μL of PBS and 0.9% saline served as controls. Final concentrations of sucralose or the indicated saccharide shown in FIG. 2 were as follows (from left to right): 24 mM sucralose, 12 mM sucralose, 6.24 mM sucralose, 2.88 mM sucralose, 1.44 mM sucralose, 0.96 mM sucralose, 0.48 mM sucralose, 24 mM sucrose, 2.4 mM sucrose, 24 mM trehalose, 24 mM melezitose, 4.8 mM ML848, and 24 mM DG783.
(§1) The filled centrifuge tubes were gently inverted five times to mix and stored upright on the benchtop at approximately 25° C. Tubes were photographed at 1 hour (FIG. 2, upper panel) and 6 hours (FIG. 2, center panel) against a white background for visual analysis of sedimentation rate. After 7 hours of storage, tubes were centrifuged for 20 min at 3000 rpm to determine the effect of hemolysis on sedimentation rate by visual analysis (FIG. 2, lower panel).

[2] = tested on: erythrocytes in whole blood; experiment: Erythrocyte sedimentation in whole blood after addition of sucralose solution, visual analysis (Example 1); settings: about 24 mM sucralose (0.5 M solution, blood:solution 20:1), K2EDTA blood, ambient temperature, 6 hours and 24 hours
Experimental: Fresh blood was collected into BD K2EDTA VACUTAINER® tubes and pooled. Blood and a solution of 0.5 M sucralose were mixed at a ratio of 20:1 by aliquotting 952 μL of fresh blood into 2 mL centrifuge tubes containing 48 μL of formulation, resulting in a concentration of about 24 mM sucralose. 48 μL of PBS and 0.9% saline served as controls. Blood with no formulation (NF) added served as an additional control. The filled centrifuge tubes were gently inverted five times to mix and stored upright on the benchtop at approximately 25° C. Tubes were photographed at 0 hours (FIG. 1A), 6 hours (FIG. 1B), and 24 hours (FIG. 1C) against a white background for visual analysis of sedimentation rate.

[3] = tested on: erythrocytes in whole blood; experiment: Hemolysis by centrifugation after 7 hours of storage, visual analysis (Example 2)
Experimental: as §1

[4] = tested on: erythrocytes in whole blood; experiment: Erythrocyte sedimentation in whole blood after addition of sucralose powder, visual analysis (Example 3)
Experimental: Fresh blood was collected into BD K2EDTA VACUTAINER® tubes and pooled. 1 mL of fresh blood was aliquotted into 2 mL centrifuge tubes containing sucralose powder. Final concentrations of sucralose ranged from 7.5 mM to 100 mM, corresponding to 3.0 mg to 39.8 mg per mL of blood. The no formulation (NF) control sample received no addition of sucralose. Tubes were inverted at least five times until no visible undissolved material remained at the bottom of the tubes. Tubes were stored upright on the benchtop at approximately 25° C. Tubes were photographed at 1 hour (FIG. 3, upper panel) and 6 hours (FIG. 3, lower panel) against a white background for visual analysis of sedimentation rate.

[5] = tested on: erythrocytes in whole blood; experiment: Erythrocyte sedimentation in whole blood collected with different anticoagulants, visual analysis (Example 4); settings: final 24 mM sucralose; ACD-B, K3EDTA, NaHep, LiHep, NaF, SPS, K2EDTA tubes; 2 hours and 8 hours
Text: To screen for collection conditions, fresh blood was collected into a series of BD VACUTAINER® or Greiner Bio-One VACUETTE® low-volume blood collection tubes containing different anticoagulants, including acid citrate dextrose solution B (ACD-B), tri-potassium ethylenediaminetetraacetic acid (K3EDTA), sodium heparin (NaHep), lithium heparin (LiHep), sodium fluoride (NaF), and sodium polyanethol sulfonate (SPS). Collection into tubes containing di-potassium ethylenediaminetetraacetic acid (K2EDTA) served as a control. 952 μL of fresh blood was aliquot into 2 mL centrifuge tubes containing 48 μL of 0.5 M sucralose or PBS. No formulation (NF) added served as an additional control. The filled centrifuge tubes were gently inverted five times to mix and stored upright on the benchtop at approximately 25° C. Tubes were photographed at 2 hours (FIG. 4, upper panel) and 8 hours (FIG. 4, lower panel) against a white background for visual analysis of sedimentation rate. […] By contrast, addition of PBS had no effect on erythrocyte sedimentation rate.

[6] = tested on: erythrocytes in whole blood; experiment: Erythrocyte sedimentation in whole blood: sucralose compared to polyols and halogenated polyols, visual analysis (Example 5); settings: 0.5 M solution, final 24 mM sucralose, K2EDTA blood, 2 hours
Experimental: Fresh blood was collected into BD K2EDTA VACUTAINER® tubes and pooled. 952 μL of fresh blood was aliquot into 2 mL centrifuge tubes containing 48 μL of a solution of 0.5 M sucralose, the indicated polyol, or the indicated halogenated polyol. Additives at 0.25 M were adjusted to 300 mOsmol with NaCl. PBS and no formulation (NF) added served as controls. The filled centrifuge tubes were gently inverted five times to mix and stored upright on the benchtop at approximately 25° C. Tubes were photographed at 2 hours against a white background for visual analysis of sedimentation rate.

[7] = other saccharides, final: 24 mM and 2.4 mM sucrose, 24 mM trehalose, 24 mM melezitose, 4.8 mM ML848, 24 mM DG783

OC[C@H]1O[C@H](O[C@H]2O[C@H](CO)[C@@H](O)[C@H](O)[C@H]2O)[C@H](O)[C@@H](O)[C@@H]1O [trehalose]
lower sedimentation rate of erythrocytes [1, 7]: not observed

OC[C@H]1O[C@H](O[C@]2(CCl)O[C@H](CCl)[C@@H](O)[C@@H]2O)[C@H](O)[C@@H](O)[C@H]1Cl [sucralose, 1,6-dichloro-1,6-dideoxy-β-D-fructofuranosyl-4-chloro-4-deoxy-α-D-galactopyranoside]
sedimentation rate of the erythrocytes compared to NF, PBS or saline [2]: lower sedimentation rate | lower sedimentation rate of erythrocytes ([1]; final sucralose concentrations below 5 mM): not observed | sedimentation rate of erythrocytes ([1]; high concentrations of sucralose, ambient temperature): lower sedimentation rate | hemolysis of erythrocytes (coloration of plasma layer after centrifugation) ([3]; high concentration of sucralose, 7 hours of storage, centrifuged 20 min at 3000 rpm): not due to excessive hemolysis | final sucralose concentrations at which significant hemolysis was not seen ([3]; whole blood): ≤ 40 mM | state of whole blood samples at lower concentrations of sucralose ([4]; sucralose powder below 24 mM, ambient temperatures, 6 hours): separation of the erythrocyte and plasma layers | sucralose concentration at which homogeneity of whole blood samples was observed ([4]; sucralose powder, ambient temperatures, 6 hours): ≥ 24 mM | rate of erythrocyte sedimentation versus sucralose concentration ([4]; sucralose powder, final 7.5 mM to 100 mM, K2EDTA blood, 1 hour and 6 hours): inversely proportional to the concentration of sucralose | erythrocyte sedimentation rate for each anticoagulant [5]: reduction of erythrocyte sedimentation rate | erythrocyte sedimentation rate [6]: reduced erythrocyte sedimentation rate

OC[C@H]1O[C@@](CO)(O[C@H]2O[C@H](CO)[C@@H](O)[C@H](O)[C@H]2O)[C@@H](O)[C@@H]1O [sucrose]
lower sedimentation rate of erythrocytes [1, 7]: not observed

OC[C@H]1O[C@@](CO)(O[C@H]2O[C@H](CO)[C@@H](O)[C@H](O)[C@H]2O)[C@@H](O[C@H]2O[C@H](CO)[C@@H](O)[C@H](O)[C@H]2O)[C@@H]1O [melezitose]
lower sedimentation rate of erythrocytes [1, 7]: not observed
